Assay results reported in US20250188040A1, “PHARMACEUTICAL COMPOSITIONS COMPRISING WRN HELICASE INHIBITORS” (Vividion Therapeutics, Inc., priority 2022, published 2025).
Read-outs that look alike come from different tables or passages of the source.

Legend:
[1] = test system: HCT 116 cells; assay: Cell growth assay (CellTiter-Glo 2.0), HCT 116 MSI-H cell line; conditions: Homo sapiens, HCT-116, 120 h, read-out: Cell Growth Inhibition GI50 HCT-116
Procedure: (§1) The effects of compound on cellular viability were determined using the CellTiter-Glo® 2.0 Luminescent Cell Viability Assay (Promega, Madison, WI).
(§2) SW480 cells were seeded at 1,000 cells per well in Eagle's Minimum Essential Medium (EMEM) with 10% FBS. Both cell lines were seeded in a volume of 50 μL medium per well. […] The concentration range was adjusted as needed for compounds of different potencies. The cells treated with compounds were incubated for 5 days at 37° C. in 5% CO2. […] The plate was then read on a Clariostar plate reader (BMG Labtech, Cary, NC) in luminescence mode. The previously measured baseline cell viability was subtracted from the luminescence value of each well, and cell viability (% of DMSO) was plotted as a function of log compound concentration. The EC50 was then calculated for each compound using Dotmatics Software (San Diego, CA).

[2] = biological target: T1, WRN C727 (Homo sapiens, UniProt Q14191); assay: Target engagement, in vitro (lysate), OCI-AML2; format: binding; conditions: read-out: OCI-AML2 WRN C727 TE50 in vitro (lysate)
T1 construct: endogenous in cells; host or cells: OCI-AML2
Procedure, shortened: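 Percent engagement of WRN C727 is expressed against DMSO-treated samples, measured by PRM mass spectrometry of streptavidin-enriched, probe-tagged tryptic peptides. Compound dose responses preceded probe labelling of solvent-exposed cysteines, in either living OCI-AML2 cells or their lysates.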

[3] = test system: SW480 cells; assay: Cell growth assay (CellTiter-Glo 2.0), SW480 MSS cell line; conditions: Homo sapiens, SW480, 120 h, read-out: Cell Growth Inhibition GI50 SW480
Procedure: as §1, §2

[4] = biological target: hWRN(519-1227)_C-H3CV-GFP-10His (Homo sapiens, UniProt Q14191); assay: Helicase Assay for WRN Inhibition (ATP-dependent, fluorescence based)
[5] = biological target: T1, WRN C727; assay: Target engagement, in situ (cell), OCI-AML2; format: cell-based; conditions: OCI-AML2 cells, read-out: OCI-AML2 WRN C727 TE50 in situ (cell)
Procedure: Cells or cell lysates were treated with a dose response of compound followed by probe treatment, which labels solvent exposed cysteines. Proteins were enzymatically digested with trypsin and probe-labelled peptides were enriched with streptavidin. Isolated peptides were then separated using reversed-phase liquid chromatography on a C18 column (Dionex Ultimated 3000 nano-LC, Thermo). Peptides were analyzed by parallel reaction monitoring mass spectrometry (Exploris 120, Thermo).
Target engagement (%) is calculated relative to DMSO treated control samples.

[6] = WRN Helicase IC50, 30 min preincubation with ATP, 30 min reaction

Sequence of hWRN(519-1227)_C-H3CV-GFP-10His (Q14191 519-1227): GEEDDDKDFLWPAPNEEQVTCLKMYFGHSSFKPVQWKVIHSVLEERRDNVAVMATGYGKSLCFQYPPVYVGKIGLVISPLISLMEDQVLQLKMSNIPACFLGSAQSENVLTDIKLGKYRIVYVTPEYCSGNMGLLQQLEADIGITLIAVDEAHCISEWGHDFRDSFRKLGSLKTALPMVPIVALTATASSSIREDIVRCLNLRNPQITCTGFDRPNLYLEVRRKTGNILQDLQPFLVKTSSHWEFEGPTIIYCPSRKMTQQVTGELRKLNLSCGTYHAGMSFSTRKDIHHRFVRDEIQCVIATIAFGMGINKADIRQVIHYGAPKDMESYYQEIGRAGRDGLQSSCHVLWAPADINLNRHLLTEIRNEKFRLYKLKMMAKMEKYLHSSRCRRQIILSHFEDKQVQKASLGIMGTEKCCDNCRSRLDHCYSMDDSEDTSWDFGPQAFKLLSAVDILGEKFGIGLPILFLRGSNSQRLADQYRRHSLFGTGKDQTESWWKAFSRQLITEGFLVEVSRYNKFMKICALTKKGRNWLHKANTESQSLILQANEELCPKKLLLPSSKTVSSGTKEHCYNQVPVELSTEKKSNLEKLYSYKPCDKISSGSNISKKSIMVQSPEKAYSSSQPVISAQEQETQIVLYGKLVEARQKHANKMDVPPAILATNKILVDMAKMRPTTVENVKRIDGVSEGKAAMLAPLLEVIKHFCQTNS
T1 sequence (Q14191 whole entry): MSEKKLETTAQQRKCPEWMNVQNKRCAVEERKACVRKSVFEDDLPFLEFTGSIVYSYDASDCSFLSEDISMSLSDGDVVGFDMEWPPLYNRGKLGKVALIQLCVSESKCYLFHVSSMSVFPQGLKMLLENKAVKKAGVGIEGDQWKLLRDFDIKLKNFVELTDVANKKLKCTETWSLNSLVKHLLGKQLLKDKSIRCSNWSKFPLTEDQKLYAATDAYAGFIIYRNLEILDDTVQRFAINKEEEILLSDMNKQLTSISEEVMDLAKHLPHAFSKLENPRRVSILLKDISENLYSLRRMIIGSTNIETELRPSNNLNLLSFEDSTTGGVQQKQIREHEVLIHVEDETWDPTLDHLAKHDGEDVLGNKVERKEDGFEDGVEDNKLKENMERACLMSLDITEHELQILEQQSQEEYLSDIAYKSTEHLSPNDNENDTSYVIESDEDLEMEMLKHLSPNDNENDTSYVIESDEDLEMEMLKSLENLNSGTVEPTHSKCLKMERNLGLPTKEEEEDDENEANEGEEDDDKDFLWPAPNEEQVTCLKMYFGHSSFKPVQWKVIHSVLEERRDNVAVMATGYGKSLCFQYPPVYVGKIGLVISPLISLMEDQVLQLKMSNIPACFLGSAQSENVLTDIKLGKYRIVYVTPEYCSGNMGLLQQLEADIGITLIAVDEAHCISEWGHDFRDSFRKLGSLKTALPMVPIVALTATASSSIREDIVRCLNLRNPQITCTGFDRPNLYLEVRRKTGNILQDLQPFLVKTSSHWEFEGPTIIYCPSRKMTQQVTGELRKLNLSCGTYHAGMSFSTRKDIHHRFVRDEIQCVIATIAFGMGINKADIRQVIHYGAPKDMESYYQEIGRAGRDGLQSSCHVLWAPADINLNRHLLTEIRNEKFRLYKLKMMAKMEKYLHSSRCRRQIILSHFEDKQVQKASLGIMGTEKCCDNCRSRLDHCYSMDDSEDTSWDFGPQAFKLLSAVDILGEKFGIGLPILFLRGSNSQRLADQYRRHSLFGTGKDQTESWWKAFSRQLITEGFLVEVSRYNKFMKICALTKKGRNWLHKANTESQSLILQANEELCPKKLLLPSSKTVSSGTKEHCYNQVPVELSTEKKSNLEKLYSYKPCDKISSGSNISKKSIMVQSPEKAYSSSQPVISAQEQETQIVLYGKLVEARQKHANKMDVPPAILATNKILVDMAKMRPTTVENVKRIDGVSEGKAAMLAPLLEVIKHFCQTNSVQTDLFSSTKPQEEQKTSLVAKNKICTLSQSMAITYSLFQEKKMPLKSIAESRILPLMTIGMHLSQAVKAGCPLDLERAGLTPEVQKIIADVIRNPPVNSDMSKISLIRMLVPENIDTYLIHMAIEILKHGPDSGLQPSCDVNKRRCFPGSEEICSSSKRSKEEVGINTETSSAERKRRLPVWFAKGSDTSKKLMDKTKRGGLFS

GI50 [1] | IC50 [2] | GI50 [3] | IC50 [4, 6] | IC50 [5] | IC50 [4] | SMILES
23 nM | 116 nM | 27900 nM | 92.9 nM | 16 nM | – | COCC(/C=C/S(C)(=O)=O)NC(=O)c1cnc(C(F)(F)C2CC2)nc1Oc1ccccc1 (stereo in doubt) [Example 226, (S,E)-2-(cyclopropyldifluoromethyl)-N-(1-methoxy-4-(methylsulfonyl)but-3-en-2-yl)-4-phenoxypyrimidine-5-carboxamide]
214 nM | 5000 nM | 11800 nM | 439 nM | 200 nM | – | CC[C@@H](/C=C/S(C)(=O)=O)NC(=O)c1cnc(C2CCCC2)nc1Oc1ccccc1 [Example 6, (S,E)-2-cyclopentyl-N-(1-(methylsulfonyl)pent-1-en-3-yl)-4-phenoxypyrimidine-5-carboxamide]
8900 nM | > 100000 nM | > 10000 nM | 14000 nM | 50000 nM | – | CCc1ncc(C(=O)NC/C=C/S(C)(=O)=O)c(Oc2ccccc2)n1 [Example 12, (E)-2-ethyl-N-(3-(methylsulfonyl)allyl)-4-phenoxypyrimidine-5-carboxamide]
5400 nM | 20000 nM | > 10000 nM | 10000 nM | 2090 nM | – | CC(C)c1ncc(C(=O)NC/C=C/S(C)(=O)=O)c(Oc2ccccc2)n1 [Example 14, (E)-2-isopropyl-N-(3-(methylsulfonyl)allyl)-4-phenoxypyrimidine-5-carboxamide]
6300 nM | 80000 nM | > 10000 nM | 7620 nM | 5990 nM | – | CS(=O)(=O)/C=C/CNC(=O)c1cnc(C2CC2)nc1Oc1ccccc1 [Example 17, (E)-2-cyclopropyl-N-(3-(methylsulfonyl)allyl)-4-phenoxypyrimidine-5-carboxamide]
380 nM | 6840 nM | > 10000 nM | 1100 nM | 1530 nM | – | C[C@@H](/C=C/S(C)(=O)=O)NC(=O)c1cnc(C2CC2)nc1Oc1ccccc1 [Example 18, (S,E)-2-cyclopropyl-N-(4-(methylsulfonyl)but-3-en-2-yl)-4-phenoxypyrimidine-5-carboxamide]
171 nM | 5000 nM | 18100 nM | 1010 nM | 290 nM | – | C[C@@H](/C=C/S(C)(=O)=O)NC(=O)c1cnc(CC2CC2)nc1Oc1ccccc1 [Example 35, (S,E)-2-(cyclopropylmethyl)-N-(4-(methylsulfonyl)but-3-en-2-yl)-4-phenoxypyrimidine-5-carboxamide]
270 nM | 1180 nM | > 10000 nM | 910 nM | 260 nM | – | C[C@@H](/C=C/S(C)(=O)=O)NC(=O)c1cnc(C2CCC2)nc1Oc1ccccc1 [Example 44, (S,E)-2-cyclobutyl-N-(4-(methylsulfonyl)but-3-en-2-yl)-4-phenoxypyrimidine-5-carboxamide]
378 nM | 4900 nM | 10600 nM | 842 nM | 430 nM | – | CC(C)(C)c1ncc(C(=O)NC/C=C/S(C)(=O)=O)c(Oc2ccccc2)n1 [Example 56, (E)-2-(tert-butyl)-N-(3-(methylsulfonyl)allyl)-4-phenoxypyrimidine-5-carboxamide]
23.5 nM | 448 nM | 8730 nM | 57.7 nM | 16 nM | – | CC(C)(C)c1ncc(C(=O)N[C@H](/C=C/S(C)(=O)=O)C2CC2)c(Oc2ccccc2)n1 [Example 58, (S,E)-2-(tert-butyl)-N-(1-cyclopropyl-3-(methylsulfonyl)allyl)-4-phenoxypyrimidine-5-carboxamide]
430 nM | 26000 nM | > 5000 nM | 1500 nM | 1140 nM | – | C[C@@H](/C=C/S(C)(=O)=O)NC(=O)c1cnc(C2CCCCC2)nc1Oc1ccccc1 [Example 77, (S,E)-2-cyclohexyl-N-(4-(methylsulfonyl)but-3-en-2-yl)-4-phenoxypyrimidine-5-carboxamide]
51.1 nM | 200 nM | 8780 nM | 80 nM | 16 nM | – | CS(=O)(=O)/C=C/[C@@H](NC(=O)c1cnc(C(F)(F)C(F)(F)F)nc1Oc1ccccc1)C1CC1 [Example 84, (S,E)-N-(1-cyclopropyl-3-(methylsulfonyl)allyl)-2-(perfluoroethyl)-4-phenoxypyrimidine-5-carboxamide]
66 nM | 853 nM | 24400 nM | 174 nM | 150 nM | – | CS(=O)(=O)/C=C/[C@@H](NC(=O)c1cnc(C2(F)CC2)nc1Oc1ccccc1)C1CC1 [Example 100, (S,E)-N-(1-cyclopropyl-3-(methylsulfonyl)allyl)-2-(1-fluorocyclopropyl)-4-phenoxypyrimidine-5-carboxamide]
81.8 nM | 530 nM | 4140 nM | 130 nM | 160 nM | – | CS(=O)(=O)/C=C/[C@@H](NC(=O)c1cnc(C2(C(F)(F)F)CC2)nc1Oc1ccccc1)C1CC1 [Example 102, (S,E)-N-(1-cyclopropyl-3-(methylsulfonyl)allyl)-4-phenoxy-2-(1-(trifluoromethyl)cyclopropyl)pyrimidine-5-carboxamide]
2500 nM | 22300 nM | > 10000 nM | 2200 nM | 1500 nM | – | C[C@@H](/C=C/S(C)(=O)=O)NC(=O)c1cnc(C2CCCC2)nc1Oc1cc(F)cc(F)c1 [Example 116, (S,E)-2-cyclopentyl-4-(3,5-difluorophenoxy)-N-(4-(methylsulfonyl)but-3-en-2-yl)pyrimidine-5-carboxamide]
– | > 100000 nM | – | 22000 nM | 8070 nM | – | C[C@@H](/C=C/S(C)(=O)=O)NC(=O)c1cnc(C2CCCC2)nc1Oc1cc(F)cc(Cl)c1 [Example 122, (S,E)-4-(3-chloro-5-fluorophenoxy)-2-cyclopentyl-N-(4-(methylsulfonyl)but-3-en-2-yl)pyrimidine-5-carboxamide]
– | > 100000 nM | – | 29000 nM | 20000 nM | – | C[C@@H](/C=C/S(C)(=O)=O)NC(=O)c1cnc(C2CCCC2)nc1Oc1cc(Cl)cc(Cl)c1 [Example 123, (S,E)-2-cyclopentyl-4-(3,5-dichlorophenoxy)-N-(4-(methylsulfonyl)but-3-en-2-yl)pyrimidine-5-carboxamide]
– | > 100000 nM | – | 192000 nM | > 100000 nM | – | C[C@@H](/C=C/S(C)(=O)=O)NC(=O)c1cnc(C2CCCC2)nc1Oc1cccc2ccccc12 [Example 139, (S,E)-2-cyclopentyl-N-(4-(methylsulfonyl)but-3-en-2-yl)-4-(naphthalen-1-yloxy)pyrimidine-5-carboxamide]
693 nM | 20000 nM | > 16000 nM | 1890 nM | 800 nM | – | C[C@@H](/C=C/S(C)(=O)=O)NC(=O)c1cnc(C2CC2)nc1OC1CCCC1 [Example 144, (S,E)-4-(cyclopentyloxy)-2-cyclopropyl-N-(4-(methylsulfonyl)but-3-en-2-yl)pyrimidine-5-carboxamide]
165 nM | 1880 nM | > 10000 nM | 500 nM | 160 nM | – | C[C@@H](/C=C/S(C)(=O)=O)NC(=O)c1cnc(C(C)(C)C)nc1OC1CCCC1 [Example 153, (S,E)-2-(tert-butyl)-4-(cyclopentyloxy)-N-(4-(methylsulfonyl)but-3-en-2-yl)pyrimidine-5-carboxamide]
222 nM | 1330 nM | 8970 nM | 330 nM | 140 nM | – | C[C@@H](/C=C/S(C)(=O)=O)NC(=O)c1cnc(C(C)(C)C)nc1OC1CCCCC1 [Example 154, (S,E)-2-(tert-butyl)-4-(cyclohexyloxy)-N-(4-(methylsulfonyl)but-3-en-2-yl)pyrimidine-5-carboxamide]
– | > 100000 nM | – | 15600 nM | 7080 nM | – | CS(=O)(=O)/C=C/CNC(=O)c1cnc(N2CCCC2)nc1Oc1ccccc1 [Example 167, (E)-N-(3-(methylsulfonyl)allyl)-4-phenoxy-2-(pyrrolidin-1-yl)pyrimidine-5-carboxamide]
391 nM | – | > 15200 nM | – | 490 nM | 1100 nM | CS(=O)(=O)C=C1CN(C(=O)c2cnc(C3CC3)nc2Oc2ccccc2)C1 [Example 188, (2-cyclopropyl-4-phenoxypyrimidin-5-yl)(3-((methylsulfonyl)methylene)azetidin-1-yl)methanone]
240 nM | – | > 10000 nM | 940 nM | 200 nM | – | C[C@@H](/C=C/S(C)(=O)=O)NC(=O)c1cnc(C(C)(C)C)cc1Oc1ccccc1 [Example 253, (S,E)-6-(tert-butyl)-N-(4-(methylsulfonyl)but-3-en-2-yl)-4-phenoxynicotinamide]
– | 8490 nM | – | 62000 nM | 21300 nM | – | CCOc1cc(C2CCCC2)ccc1C(=O)NC/C=C/S(C)(=O)=O [Example 280, (E)-4-cyclopentyl-2-ethoxy-N-(3-(methylsulfonyl)allyl)benzamide]
